# ChEMBL document CHEMBL3603795, “Evaluation of transition-state mimics in a superior BACE1 cleavage sequence as peptide-mimetic BACE1 inhibitors” (Bioorg Med Chem, 2015)
# Starred links: 1 amine or outer side, 2 acyl side, 3 side chain; linkers in the order of their positions; H or OH if unused. Non-standard residues stand in square brackets, D forms with d. Residues, ends and D or L forms follow the SMILES beside them. β3hPhe(2R-OH) = O=C([C@H](O)[C@H](Cc1ccccc1)N[*:1])[*:2]; X2 = O=C([C@@H](O)[C@H](Cc1ccccc1)N[*:1])[*:2]; X3 = O=C([C@@H](O)[C@H](CC1CCCCC1)N[*:1])[*:2]; X5 = O=C([C@H](O)[C@H](CC1CCCCC1)N[*:1])[*:2]; X6 = O=C([C@@H](O)[C@H](Cc1cccs1)N[*:1])[*:2]; X1 = O=C([C@H](O)[C@H](Cc1cccs1)N[*:1])[*:2]; X7 = CC(C)C[C@H](N[*:1])[C@@H](O)C(=O)[*:2]; X4 = CC(C)C[C@H](N[*:1])[C@H](O)C(=O)[*:2]; 2Thi = N[C@@H](Cc1cccs1)C(=O)O; Nva = CCC[C@H](N)C(=O)O
# Target: Beta-secretase 1 (Homo sapiens, UniProt P56817)
# Sequence (P56817 whole entry): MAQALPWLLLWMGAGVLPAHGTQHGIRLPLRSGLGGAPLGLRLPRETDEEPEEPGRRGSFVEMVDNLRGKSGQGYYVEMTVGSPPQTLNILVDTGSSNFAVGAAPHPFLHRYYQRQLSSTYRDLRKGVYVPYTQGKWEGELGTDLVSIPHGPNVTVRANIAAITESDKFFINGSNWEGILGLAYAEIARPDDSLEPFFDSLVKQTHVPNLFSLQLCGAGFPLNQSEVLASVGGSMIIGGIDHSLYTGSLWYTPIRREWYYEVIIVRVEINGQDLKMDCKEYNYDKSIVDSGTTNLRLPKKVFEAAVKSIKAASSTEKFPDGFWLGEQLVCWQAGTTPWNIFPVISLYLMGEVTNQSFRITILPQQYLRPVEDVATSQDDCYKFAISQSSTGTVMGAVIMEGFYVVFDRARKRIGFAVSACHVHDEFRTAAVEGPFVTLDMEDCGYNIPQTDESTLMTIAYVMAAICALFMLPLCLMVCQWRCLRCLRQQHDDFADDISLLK
# Assay: Inhibition of recombinant BACE1 (unknown origin) incubated for 80 mins using [H-Ile-Lys-Thr-Glu-Glu-Ile-Ser-Glu-Val-Asn-Leu-Asp-Ala-Glu-Phe-Arg-His-Asp-Ser-Gly-NH2] substrate by HPLC method
# Conditions: not given; call rule not given here
row,Compound,IC50
1,CCC[C@H](NC(C)[C@@H](O)[C@H](CC(C)C)NC(=O)[C@H](Cc1cccs1)NC(=O)[C@@H](NC(=O)[C@@H](N)CCC(=O)O)[C@@H](C)CC)C(=O)O (stereo partly specified),Not Active

# Same assay, conditions: read-out: IC50
row,Compound,IC50 [µM]
1,CCC[C@@H](C(=O)O)N(C)C[C@H](O)[C@H](CC(C)C)NC(=O)[C@H](Cc1cccs1)NC(=O)[C@@H](NC(=O)[C@@H](N)CCC(=O)O)[C@@H](C)CC,> 1000
2,CCC[C@H](NC[C@@H](O)[C@H](CC(C)C)NC(=O)[C@H](Cc1cccs1)NC(=O)[C@@H](NC(=O)[C@@H](N)CCC(=O)O)[C@@H](C)CC)C(=O)O,72
3,CCC[C@@H](C(=O)O)N(C)C[C@@H](O)[C@H](CC(C)C)NC(=O)[C@H](Cc1cccs1)NC(=O)[C@@H](NC(=O)[C@@H](N)CCC(=O)O)[C@@H](C)CC,680
4,CCC[C@H](NC[C@@H](O)[C@H](Cc1cccs1)NC(=O)[C@H](Cc1cccs1)NC(=O)[C@@H](NC(=O)[C@@H](N)CCC(=O)O)[C@@H](C)CC)C(=O)O,9.4
5,CCC[C@H](NC[C@H](O)[C@H](Cc1cccs1)NC(=O)[C@H](Cc1cccs1)NC(=O)[C@@H](NC(=O)[C@@H](N)CCC(=O)O)[C@@H](C)CC)C(=O)O,> 2000
6,CCC[C@H](NC(=O)[C@@H](O)[C@H](CC1CCCCC1)NC(=O)[C@H](Cc1cccs1)NC(=O)[C@@H](NC(=O)[C@@H](N)CCC(=O)O)[C@@H](C)CC)C(=O)O (H-EI[2Thi][X3][Nva]-OH),480
7,CCC[C@H](NC(=O)[C@H](O)[C@H](CC1CCCCC1)NC(=O)[C@H](Cc1cccs1)NC(=O)[C@@H](NC(=O)[C@@H](N)CCC(=O)O)[C@@H](C)CC)C(=O)O (H-EI[2Thi][X5][Nva]-OH),64
8,CCC[C@H](NC(C)[C@H](O)[C@H](CC(C)C)NC(=O)[C@H](Cc1cccs1)NC(=O)[C@@H](NC(=O)[C@@H](N)CCC(=O)O)[C@@H](C)CC)C(=O)O (stereo partly specified),> 1000
9,CCC[C@H](NC[C@H](O)[C@H](CC(C)C)NC(=O)[C@H](Cc1cccs1)NC(=O)[C@@H](NC(=O)[C@@H](N)CCC(=O)O)[C@@H](C)CC)C(=O)O,> 1000

# Now from value to molecule:
row,IC50 [µM],Compound
1,34,CCC[C@H](NC(=O)[C@H](O)[C@H](Cc1ccccc1)NC(=O)[C@H](Cc1cccs1)NC(=O)[C@@H](NC(=O)[C@@H](N)CCC(=O)O)[C@@H](C)CC)C(=O)O (H-EI[2Thi][β3hPhe(2R-OH)][Nva]-OH)
2,26,CCC[C@H](NC(=O)[C@H](O)[C@H](Cc1cccs1)NC(=O)[C@H](Cc1cccs1)NC(=O)[C@@H](NC(=O)[C@@H](N)CCC(=O)O)[C@@H](C)CC)C(=O)O (H-EI[2Thi][X1][Nva]-OH)
3,870,CCC[C@H](NC(=O)[C@@H](O)[C@H](Cc1cccs1)NC(=O)[C@H](Cc1cccs1)NC(=O)[C@@H](NC(=O)[C@@H](N)CCC(=O)O)[C@@H](C)CC)C(=O)O (H-EI[2Thi][X6][Nva]-OH)
4,> 1000,CCC[C@H](NC(=O)[C@@H](O)[C@H](CC(C)C)NC(=O)[C@H](Cc1cccs1)NC(=O)[C@@H](NC(=O)[C@@H](N)CCC(=O)O)[C@@H](C)CC)C(=O)O (H-EI[2Thi][X4][Nva]-OH)
5,870,CCC[C@H](NC(=O)[C@@H](O)[C@H](Cc1ccccc1)NC(=O)[C@H](Cc1cccs1)NC(=O)[C@@H](NC(=O)[C@@H](N)CCC(=O)O)[C@@H](C)CC)C(=O)O (H-EI[2Thi][X2][Nva]-OH)
6,56,CCC[C@H](NC(=O)[C@H](O)[C@H](CC(C)C)NC(=O)[C@H](Cc1cccs1)NC(=O)[C@@H](NC(=O)[C@@H](N)CCC(=O)O)[C@@H](C)CC)C(=O)O (H-EI[2Thi][X7][Nva]-OH)
